What all share (test): growth of human tumour cells (NCI), 48 h
The test system of test [1] is M14 melanoma.
Test [2] has as its system MALME-3M melanoma.
Test [3] concerns CCRF-CEM leukemia.
Test [4] relates to OVCAR-8 ovarian.
Test [5] has as its system HCC-2998 colon.
Test [6] has as its system KM12 colon.
Test [7] has as its system BT-549 breast.
For test [8], the system named is COLO 205 colon.
For test [9], the system named is A498 renal.
Test [10] deals with SR leukemia.

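Compound exposure: 48 hours, 5 concentrations, 96-well plates. The concentration for 50% growth inhibition is given as GI50. TGI marks complete inhibition of growth.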 Some results are limits rather than exact numbers.

On to `CC1CN=C(c2ccc(CN3CCC(C4CCN(Cc5ccc(C6=NCC(C)N6)cc5)CC4)CC3)cc2)N1` (stereo unspecified), for which the TGI is 44 µM in test [1]; 63 µM in test [2]; 38.2 µM in test [3]; above 100 µM in test [4]; 30.9 µM in test [5]; 31.8 µM in [6]. Also, the TGI in test [7] is above 100 µM; in [8], 41.3 µM; in [9], 80.6 µM.
Regarding `O=c1c(O)cccn1C1OC(CO)C(O)C1O` (stereo unspecified), the TGI in [1], in [2], in test [3], in [4], in test [5] and in test [6] was above 100 µM throughout. Moreover, the TGI in test [8] and in [9] was above 100 µM throughout.
For `COC(=O)/C=c1/c2ccccc2n2c1c1ccccc1[n+]2C`, the TGI amounted to 15.5 µM in [1]; 6.74 µM in [2]; 51.1 µM in test [3]; 15.7 µM in test [4]; 5.75 µM in [5]; 9.47 µM in test [6]. The TGI in test [7] came to 14.7 µM; in test [8], 2.51 µM; in [9] it was 14.6 µM.
For the compound `CC(=O)NC(=O)NC1=NCCC(=O)N1CCc1c[nH]c2ccccc12`, the TGI in test [1], in test [2], in test [3], in test [4], in [5] and in test [6] was above 100 µM each time. The TGI in [8] and in test [9] was above 100 µM throughout.
As to `Cc1c(C#N)c(=N)oc2ccccc12`, the TGI in test [1], in test [2], in [4], in test [5], in test [6] and in [7] was above 100 µM in each case. Moreover, the TGI in [8] and in test [9] was above 100 µM throughout.
Consider `O=c1oc2cccnc2n1CCCCN1CCN(c2ccccc2)CC1`, for which the TGI in test [10], in test [1], in [2], in [3], in [4] and in [5] was above 100 µM each time. The compound also yielded a TGI in test [9] above 100 µM.
Take `COc1cc2oc(=O)cc(C)c2c(OC)c1OC(C)=O`: the TGI in [10], in test [1], in [2], in test [3], in [4] and in [6] was above 100 µM each time. For the same compound, the TGI in test [8] and in test [9] was above 100 µM each time.
Take `CC(C)(C)C(=O)N1CCN(C=O)C1=S`: the TGI in test [1] is above 100 µM; in test [2], above 100 µM; in test [3], 97.6 µM; in [4] it was above 100 µM; in test [5], above 100 µM; in test [6], above 100 µM. For the same compound, the TGI was above 100 µM in test [7], above 100 µM in test [8] and 80.8 µM in test [9].
With `O=C(NCCCCCCO)c1cccc2cc3ccccc3nc12`, the TGI in test [3] was above 100 µM; in [4], above 100 µM; in [6], 33.9 µM; in [7] it was 33.2 µM; in test [8], 25.3 µM.
Take `Cc1nc2c(n1-c1ccccc1)C(=O)c1ccccc1C2=O`: the TGI is above 100 µM in test [10]; above 100 µM in test [1]; 34.2 µM in [2]; above 100 µM in test [3]; above 100 µM in test [4]; above 100 µM in test [5]. Moreover, the TGI in test [6] and in test [9] was above 100 µM throughout.
On to `NC(=S)NNC(=S)NC(=O)c1ccco1`, for which the TGI in test [10], in test [1], in test [2], in test [3], in [4] and in test [5] was above 10 µM throughout. For the same compound, in [6], the TGI is above 10 µM.
As for `CS(=O)(=O)[O-].CS(=O)(=O)[O-].NC1CCCCC1N.[Pt+4]` (stereo unspecified), the GI50 in test [2] was above 100 µM; in test [3], 40.2 µM; in test [4], above 74 µM; in test [5], above 100 µM; in [6], above 100 µM; in test [8] it was 35.9 µM. The GI50 in [9] is above 100 µM. Also, the TGI in test [2], in test [3], in [4], in test [5], in test [6] and in test [8] was above 100 µM each time. Besides, the TGI in [9] is above 100 µM.
As to `C[PH+](c1nc2ccccc2nc1[PH+](C)C(C)(C)C)C(C)(C)C.C[PH+](c1nc2ccccc2nc1[PH+](C)C(C)(C)C)C(C)(C)C.[Au+].[Cl-]` (stereo unspecified), the GI50 in [1] was 0.0386 µM; in test [2] it was 0.0263 µM; in test [3], 0.0603 µM; in [4] it was 0.0358 µM; in test [5] it was 0.0296 µM; in test [6], 0.0314 µM. For the same compound, the GI50 in test [7] was 0.0324 µM; in test [8], 0.0198 µM; in test [9] it was 0.0263 µM. For the same compound, the TGI was determined as 0.31 µM in test [1]; 0.0811 µM in test [2]; 1.5 µM in test [3]; 1.88 µM in test [4]; 0.302 µM in [5]; 0.131 µM in test [6]. Moreover, the figures for the TGI in test [7], in test [8] and in test [9] were 0.0961 µM, 0.0442 µM and 0.445 µM, respectively.
For the compound `COc1cc2oc(-c3ccc4c(c3)OCO4)c(OC)c(=O)c2c(O)c1OC`, the TGI in test [1], in [2], in [3], in [4], in test [5] and in [6] was above 50 µM in each case. Moreover, the TGI in test [7], in [8] and in [9] was above 50 µM throughout.
On to `NC1c2c(Cl)sc(Cl)c2C(=O)C1O` (stereo unspecified), for which the TGI was above 100 µM in [1]; 82.4 µM in test [2]; 37.7 µM in test [3]; 51.8 µM in test [4]; 30.7 µM in [5]; above 100 µM in test [6]. Besides, the figures for the TGI in test [7], in [8] and in [9] were 47.6 µM, 44.4 µM and above 100 µM, respectively.
`COc1ccc(NC(=O)CC(=O)N2N=C(N(c3ccccc3)c3ccccc3)CC2c2ccccc2)cc1` (stereo unspecified): the TGI in test [1], in test [3], in [4], in [5], in test [6] and in test [8] was above 100 µM throughout. The compound also registered a TGI in [9] above 100 µM.
With `CCOC(=O)Cc1csc(N=Nc2c(O)[nH]c3ccccc23)n1`, the TGI in [1] was above 100 µM; in test [3], 83.3 µM; in [4] it was above 100 µM; in test [5], above 100 µM; in test [6], above 100 µM; in test [7], above 100 µM. Further, the TGI in test [8] and in test [9] was above 100 µM each time.
With `Cc1ccc(/C=C2/NC(=S)SC2=O)cc1`, the TGI is above 100 µM in test [1]; above 100 µM in test [4]; above 100 µM in test [5]; above 100 µM in test [6]; 54.2 µM in [7]; above 100 µM in test [8].
Consider `C=CCCCCn1c2ccccc2c2c(C)c3cnccc3c(C)c21`, for which the TGI worked out at 36.8 µM in test [2]; 14.3 µM in test [3]; 21.2 µM in test [4]; 51.2 µM in [5]; 42.6 µM in [6]; 18 µM in test [8]. The compound further gave a TGI in [9] of 17.8 µM.
For `O=c1nc2ccc3sc4ccccc4c(=O)c3n2c(=O)[nH]1`, the TGI in test [10], in [2], in test [3], in test [4], in [5] and in [6] was above 100 µM in each case. The TGI in test [8] and in test [9] was above 100 µM throughout.
Regarding `COC(=O)c1cc(C)ccc1C1CN=NC12Cc1c(C)cc(C)cc1C2=O` (stereo unspecified), the TGI in test [1] is 41.9 µM; in test [2], 60.6 µM; in test [3], 86.5 µM; in test [4], above 100 µM; in test [5], 78.2 µM; in [6] it was 39.1 µM. Moreover, the values for the TGI in test [7] and in test [8] were 69.3 µM and 31.4 µM, respectively.
As to `O=C(O)Cc1ccccc1CCc1ccccc1Cl`, the TGI in test [10], in test [1], in test [2], in [3], in test [4] and in test [5] was above 100 µM throughout. The TGI in [6], in [8] and in [9] was above 100 µM in each case.
Turning to `CC1(C)[C@@H](OC(N)=O)C=C[C@]2(CO)[C@H]3CC[C@]4(C)[C@@H](c5ccc(=O)oc5)[C@@H](Cl)C[C@]4(O)C3=CC[C@@H]12`, the GI50 in test [10] was 0.00232 µM; in test [1], 0.0131 µM; in test [2], 0.00239 µM; in test [3] it was below 0.0001 µM; in test [4] it was 0.0028 µM; in test [5], 0.0113 µM. For the same compound, the figures for the GI50 in test [6], in test [8] and in test [9] were 0.00456 µM, 0.00578 µM and 0.0122 µM, respectively. Besides, the TGI in test [10] is 0.0146 µM; in test [1], 0.0297 µM; in [2] it was 0.00524 µM; in test [3], 0.0131 µM; in test [4], 0.0151 µM; in [5], 0.0776 µM. The TGI in [6] was found to be 0.0268 µM; in test [8] it was 0.0244 µM; in [9], 0.0557 µM.
As for `CC(=O)Nc1ccc(/C=C2/NC(=S)N(/C=C3\C(=O)Oc4ccccc4C3=O)C2=O)cc1`, the TGI in test [10], in test [1], in test [2], in test [3], in [4] and in test [5] was above 100 µM throughout. Moreover, the TGI in test [6], in [8] and in test [9] was above 100 µM throughout.
With `C=C(C)[C@@H]1CC[C@]2(CO)CC[C@]3(C)[C@H](CC[C@@H]4[C@@](C)(CCCN)[C@H](C(=C)C)CC[C@]43C)[C@@H]12`, the GI50 in test [10] was 0.475 µM; in [3], 1.84 µM; in test [5], 1.79 µM; in [6], 1.58 µM; in [8] it was 1.63 µM; in test [9] it was 1.74 µM. Also, the TGI in test [10] amounted to 2.14 µM; in test [3] it was 4.76 µM; in test [5] it was 3.3 µM; in test [6], 3.06 µM; in test [8], 3.34 µM; in test [9], 3.15 µM.
In the case of `O=P(O)(O)C=C=C1CCCCC1`, the TGI in [10], in test [1], in [2], in test [4], in test [5] and in test [6] was above 100 µM throughout. For the same compound, the TGI in test [8] and in [9] was above 100 µM throughout.
With `COc1cc(CNC(=S)CCCCCCCCCCC(C)C)ccc1O`, the TGI in [10], in [1], in test [2], in [3], in [4] and in test [5] was above 100 µM in each case. For the same compound, the TGI is 94.4 µM in test [6], above 100 µM in [8] and above 100 µM in test [9].
As for `O=c1c2cc(Br)ccc2ncn1COCc1ccccc1`, the TGI in test [10] was above 100 µM; in test [1], above 100 µM; in test [3], above 100 µM; in test [4] it was above 1 µM; in test [5], above 100 µM; in test [6] it was above 100 µM. In addition, the TGI in test [8] and in test [9] was above 100 µM throughout.
Consider `C[C@]12CCC(=O)C=C1CC[C@@H]1[C@@H]2[C@@H](O)C[C@@]2(C)[C@H]1CC[C@]2(O)C(=O)COC(=O)CCC1CCCC1`, for which the TGI in test [10], in test [2], in [3], in test [4], in [5] and in test [6] was above 100 µM each time. The TGI in test [8] and in [9] was above 100 µM throughout.

Values taken from PubChem BioAssay (NCI).
